Measured values published in ChEMBL document CHEMBL4316630, “Benzimidazole-based DGAT1 inhibitors with a [3.1.0] bicyclohexane carboxylic acid moiety” (Bioorg Med Chem Lett, 2019).

How the values were obtained:
[1] = target: T1, Diacylglycerol O-acyltransferase 1 (Homo sapiens, UniProt O75907); experiment: Inhibition of human DGAT1
T1 sequence (O75907 whole entry): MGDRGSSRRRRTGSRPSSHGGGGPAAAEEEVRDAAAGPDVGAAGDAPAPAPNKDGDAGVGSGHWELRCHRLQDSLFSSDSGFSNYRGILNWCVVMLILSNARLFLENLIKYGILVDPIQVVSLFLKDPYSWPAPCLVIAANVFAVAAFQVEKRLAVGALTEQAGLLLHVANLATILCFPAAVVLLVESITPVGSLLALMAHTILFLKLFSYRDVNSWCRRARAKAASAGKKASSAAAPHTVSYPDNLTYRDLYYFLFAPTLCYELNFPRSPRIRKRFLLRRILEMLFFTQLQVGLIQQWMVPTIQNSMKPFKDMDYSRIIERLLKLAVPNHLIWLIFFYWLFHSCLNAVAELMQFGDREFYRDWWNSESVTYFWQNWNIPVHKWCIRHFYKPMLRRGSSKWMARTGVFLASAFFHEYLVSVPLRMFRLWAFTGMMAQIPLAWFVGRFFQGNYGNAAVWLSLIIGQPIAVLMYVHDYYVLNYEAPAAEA

[2] = Plasma concentration in mouse at 3 mg/kg, po; type: ADME, organism-based; conditions: in vivo
Homo sapiens = organism: Homo sapiens; experiment: Selectivity index, ratio of IC50 for human ACAT1 to IC50 for human DGAT1
Mus musculus [3] = experiment: Reduction in lipid excursion in mouse assessed as change in triglyceride level at 3 mg/kg, po measured at 18 hrs post dose by lipid tolerance test; type: functional; set-up: scale not given: the % may be the effect or the level left
[4] = target: T2, Sterol O-acyltransferase 1 (Homo sapiens, UniProt P35610); experiment: Inhibition of human ACAT1
T2 sequence (P35610 whole entry): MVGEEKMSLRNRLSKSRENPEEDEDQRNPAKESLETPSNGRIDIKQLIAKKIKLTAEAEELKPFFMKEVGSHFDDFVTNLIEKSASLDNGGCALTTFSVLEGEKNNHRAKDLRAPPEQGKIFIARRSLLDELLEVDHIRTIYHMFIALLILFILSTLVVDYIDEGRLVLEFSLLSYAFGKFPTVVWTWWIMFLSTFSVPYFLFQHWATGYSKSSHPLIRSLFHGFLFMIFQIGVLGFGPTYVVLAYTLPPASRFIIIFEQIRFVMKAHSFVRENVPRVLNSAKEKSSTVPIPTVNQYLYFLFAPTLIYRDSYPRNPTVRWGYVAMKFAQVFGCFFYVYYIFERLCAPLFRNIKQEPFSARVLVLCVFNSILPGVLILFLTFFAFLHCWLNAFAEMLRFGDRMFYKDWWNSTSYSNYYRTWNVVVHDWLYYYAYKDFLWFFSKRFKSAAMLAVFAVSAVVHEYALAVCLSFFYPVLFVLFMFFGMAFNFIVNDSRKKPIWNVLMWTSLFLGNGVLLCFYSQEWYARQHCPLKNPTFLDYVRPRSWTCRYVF

[5] = target: T3, Diacylglycerol O-acyltransferase 1 (Mus musculus, UniProt Q9Z2A7); experiment: Inhibition of mouse DGAT1
T3 sequence (Q9Z2A7 whole entry): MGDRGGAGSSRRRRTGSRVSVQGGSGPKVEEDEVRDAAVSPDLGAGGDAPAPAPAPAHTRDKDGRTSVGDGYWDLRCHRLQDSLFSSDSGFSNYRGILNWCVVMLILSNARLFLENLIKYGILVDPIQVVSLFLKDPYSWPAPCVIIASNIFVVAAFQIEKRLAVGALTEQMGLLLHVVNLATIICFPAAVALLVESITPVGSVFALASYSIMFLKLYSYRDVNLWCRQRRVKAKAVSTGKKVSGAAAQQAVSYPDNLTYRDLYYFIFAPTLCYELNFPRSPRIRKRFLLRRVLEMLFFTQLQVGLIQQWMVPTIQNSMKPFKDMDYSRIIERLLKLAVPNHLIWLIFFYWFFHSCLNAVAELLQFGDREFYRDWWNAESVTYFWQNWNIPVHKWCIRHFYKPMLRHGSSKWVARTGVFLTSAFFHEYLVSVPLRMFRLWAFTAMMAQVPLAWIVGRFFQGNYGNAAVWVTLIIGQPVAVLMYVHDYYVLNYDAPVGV

[6] = Lipophilicity, log D of the compound by HPLC analysis; type: physicochemical
[7] = Drug metabolism in human hepatocytes assessed as glucuronide formation incubated for 2 hrs by UPLC/HRMS analysis; type: ADME, cell-based, Hepatocyte
[8] = Stability in mouse hepatocytes assessed as epimerization incubated for 2 hrs by UPLC/HRMS analysis; type: ADME, cell-based, Hepatocyte
[9] = Drug metabolism in rat hepatocytes assessed as glucuronide formation incubated for 2 hrs by UPLC/HRMS analysis; type: ADME, cell-based, Hepatocyte
[10] = Stability in human hepatocytes assessed as epimerization incubated for 2 hrs by UPLC/HRMS analysis; type: ADME, cell-based, Hepatocyte
[11] = Drug metabolism in mouse hepatocytes assessed as glucuronide formation incubated for 2 hrs by UPLC/HRMS analysis; type: ADME, cell-based, Hepatocyte
[12] = Stability in rat hepatocytes assessed as epimerization incubated for 2 hrs by UPLC/HRMS analysis; type: ADME, cell-based, Hepatocyte
[13] = Plasma concentration in mouse at 10 mg/kg, po after 4 hrs; type: ADME, organism-based
[14] = Drug metabolism in mouse assessed as epimerization by measuring plasma concentration of 1s,4s)-4-(1-(5-(5-(trifluoromethyl)-1H-benzo[d]imidazol-2-yl)pyridin-2-yl)piperidin-4-yloxy)cyclohexanecarboxylic acid at 10 mg/kg, po after 3 hrs; type: ADME, organism-based; conditions: in vivo
[15] = Plasma concentration in mouse at 10 mg/kg, po after 3 hrs; type: ADME, organism-based
[16] = Plasma concentration in mouse at 10 mg/kg, po; type: ADME, organism-based; conditions: in vivo
Mus musculus [17] = experiment: Reduction in lipid excursion in mouse assessed as change in triglyceride level at 10 mg/kg, po measured at 18 hrs post dose by lipid tolerance test; type: functional; set-up: scale not given: the % may be the effect or the level left

IC50 [1] [nM]	concentration [2] [nM]	Ratio IC50 (Homo sapiens)	IC50 [4] [nM]	IC50 [5] [nM]	logD [6]	Drug metabolism [7]	Stability [8]	Drug metabolism [9]	Stability [10]	Drug metabolism [11]	Stability [12]	concentration at 4 h [13] [nM]	concentration [14] [nM]	concentration at 3 h [15] [nM]	concentration [16] [nM]	Compound	Activity (Mus musculus [3]) [%]	Activity (Mus musculus [17]) [%]
3.8	25	> 2600	> 10000	22	1.87											O=C(O)[C@H]1[C@@H]2C[C@@H](OC3CCN(c4ccc(-c5nc6cc(C(F)(F)F)ccc6[nH]5)cn4)CC3)C[C@@H]21	-30	
	23	> 900	> 10000	74	1.88	Metabolite_Detected	Stable	Metabolite_Detected	Stable	Metabolite_Detected	Stable					O=C(O)[C@@H]1[C@@H]2C[C@H](OC3CCN(c4ccc(-c5nc6cc(C(F)(F)F)ccc6[nH]5)cn4)CC3)C[C@@H]21	3	
	27	1950	3900	4.3	1.9	Metabolite_Detected	Stable	Metabolite_Detected	Stable	Metabolite_Detected	Stable	151				O=C(O)[C@H]1[C@@H]2C[C@H](OC3CCN(c4ccc(-c5nc6cc(C(F)(F)F)ccc6[nH]5)cn4)CC3)C[C@@H]21	-70	
		> 2500			1.68		Unstable		Unstable		Unstable		54	324	17	O=C(O)[C@H]1CC[C@H](OC2CCN(c3ccc(-c4nc5cc(C(F)(F)F)ccc5[nH]4)cn3)CC2)CC1		-89
5.9	51	> 1690	> 10000	48	1.73											O=C(O)[C@@H]1[C@@H]2C[C@@H](OC3CCN(c4ccc(-c5nc6cc(C(F)(F)F)ccc6[nH]5)cn4)CC3)C[C@@H]21	-30	
		> 4000			1.64		Unstable		Unstable		Unstable				26	O=C(O)[C@H]1CC[C@@H](OC2CCN(c3ccc(-c4nc5cc(C(F)(F)F)ccc5[nH]4)cn3)CC2)CC1		-75
